Conditions: Liquid, Vibrating wire viscometry

C1CCCC1 [cyclopentane]
viscosity [mPa·s]
Conditions | 273.15 K | 293.15 K | 298.15 K | 313.15 K | 333.15 K | 353.15 K
100 kPa | 0.5628 | 0.4413 | 0.4167 | – | – | –
10000 kPa | 0.6148 | 0.4827 | 0.4583 | 0.392 | 0.3247 | –
15000 kPa | – | – | – | – | – | 0.2868
30000 kPa | 0.7203 | 0.5708 | 0.5409 | 0.4646 | 0.3882 | 0.3291
40000 kPa | 0.7767 | 0.6167 | 0.5846 | – | – | –
45000 kPa | – | – | – | 0.5222 | 0.4364 | 0.3727

— the NIST ThermoML archive (doi:10.1021/je060416d)
